We go through 2 compounds from ChEMBL document CHEMBL3271994, “Diethyl (4baalpha,4calpha,9aalpha,9balpha)-3,6-dichlorocyclobuta[1,2-b:3,4-b']bisbenzofuran-9a,9b(4bH,4cH)-dicarboxylate: the cis,syn photodimer of ethyl 5-chlorobenzofuran-2-carboxylate, an analogue related to the antilipidemic drug clofibrate” (J Med Chem, 1978).

Active and inactive are the calls of the source. The calls are words filed in the database; no cut-off is given here.

For data set [1], the system named is Rattus norvegicus. The data set is described as follows: Antilipidemic activity in triton WR-1339-induced hyperlipidemic Sprague-Dawley rat model assessed as reduction of serum triglyceride level at 0.124 mM/kg relative to control. The class given is functional. Also noted: scale not given: the % may be the effect or the level left.
Data set [2] relates to Rattus norvegicus. Description: Antilipidemic activity in sucrose fed Sprague-Dawley rat model assessed as serum triglyceride level at 0.4 mmol/kg, po bid administered for 7 days measured after 12 hrs post last dose (reference value: 91.9 +/- 19.8 mg/dL). The class given is functional.
Data set [3] concerns Rattus norvegicus. The data set is described as follows: Antilipidemic activity in sucrose fed Sprague-Dawley rat model assessed as serum cholesterol level at 0.4 mmol/kg, po bid administered for 7 days measured after 12 hrs post last dose (reference value: 61.7 +/- 11.6 mg/dL). The format is functional.
The subject of data set [4] is Rattus norvegicus. The data set is described as follows: Antilipidemic activity in sucrose-fed Sprague-Dawley rat model assessed as reduction in HMG-CoA reductase activity at 0.4 mmol/kg, po bid administered for 7 days measured after 12 hrs post last dose relative to control. The class given is functional.
The subject of data set [5] is Rattus norvegicus. Description: Antilipidemic activity in purina chow fed Sprague-Dawley rat assessed as reduction of serum cholesterol level at 0.124 mM/kg relative to control. Also noted: scale not given: the % may be the effect or the level left. The class given is functional.
Data set [6] concerns Rattus norvegicus. The data set is described as follows: Increase in NADPH cytochrome c reductase activity in sucrose-fed Sprague-Dawley rat model at 0.4 mmol/kg, po bid administered for 7 days measured after 12 hrs post last dose relative to control. Conditions: in vivo. The format is ADME, organism-based.
The test system of data set [7] is Rattus norvegicus. The data set is described as follows: Antilipidemic activity in triton WR-1339-induced hyperlipidemic Sprague-Dawley rat model assessed as reduction of plasma lipid level at 0.124 mM/kg measured 43 hrs after triton WR-1339 challenge.
In data set [8] the test system is Rattus norvegicus. Description: Increase in ethylmorphine N-demethylase activity in sucrose-fed Sprague-Dawley rat model at 0.4 mmol/kg, po bid administered for 7 days measured after 12 hrs post last dose relative to control. The class given is ADME, organism-based. The settings on record: in vivo.
Data set [9] concerns Rattus norvegicus. The data set is described as follows: Antilipidemic activity in sucrose-fed Sprague-Dawley rat model assessed as reduction of liver cholesterol level at 0.4 mmol/kg, po bid administered for 7 days measured after 12 hrs post last dose (reference value: 1.86 +/- 0.17 mg/gm). The class given is functional.
For data set [10], the system named is Rattus norvegicus. Description: Effect on cytochrome P450 level in sucrose-fed Sprague-Dawley rat model assessed per mg of protein at 0.4 mmol/kg, po bid administered for 7 days measured after 12 hrs post last dose relative to control. The class given is ADME, organism-based. The settings on record: in vivo.
The subject of data set [11] is Rattus norvegicus. Description: Increase in liver weight in sucrose-fed Sprague-Dawley rat model at 0.4 mmol/kg, po bid administered for 7 days measured after 12 hrs post last dose (reference value: 11.76 +/- 1.32 gm). The format is ADME, organism-based. The settings on record: in vivo.
Data set [12] relates to Rattus norvegicus. Description: Antilipidemic activity in purina chow fed Sprague-Dawley rat assessed as reduction of serum triglyceride level at 0.124 mM/kg relative to control. The format is functional. Also noted: scale not given: the % may be the effect or the level left.
Data set [13] concerns Rattus norvegicus. Description: Effect on cytochrome b5 level in sucrose-fed Sprague-Dawley rat model assessed per mg of protein at 0.4 mmol/kg, po bid administered for 7 days measured after 12 hrs post last dose (reference value: 0.184 +/- 0.023 nmol). The class given is ADME, organism-based. Conditions: in vivo.
The subject of data set [14] is Rattus norvegicus. Description: Antilipidemic activity in triton WR-1339-induced hyperlipidemic Sprague-Dawley rat model assessed as reduction of serum cholesterol level at 0.124 mM/kg relative to control. Also noted: scale not given: the % may be the effect or the level left. The class given is functional.
Data set [15] concerns Rattus norvegicus. Description: Increase in liver to body weight ratio in sucrose-fed Sprague-Dawley rat model at 0.4 mmol/kg, po bid administered for 7 days measured after 12 hrs post last dose (reference value: 4.07 +/- 0.28 %). The format is ADME, organism-based. The settings on record: in vivo.
In data set [16] the test system is Rattus norvegicus. Description: Antilipidemic activity in sucrose-fed Sprague-Dawley rat model assessed as reduction of liver triglyceride level at 0.4 mmol/kg, po bid administered for 7 days measured after 12 hrs post last dose relative to control. The class given is functional.
The subject of data set [17] is Rattus norvegicus. The data set is described as follows: Increase in microsomal protein level in sucrose-fed Sprague-Dawley rat model at 0.4 mmol/kg, po bid administered for 7 days measured after 12 hrs post last dose (reference value: 32.7 +/- 2.2 mg/gm). The format is ADME, organism-based. The settings on record: in vivo.
Data set [18] concerns Rattus norvegicus. Description: Effect on cytochrome b5 level in sucrose-fed Sprague-Dawley rat model assessed per mg of protein at 0.2 mmol/kg, po bid administered for 7 days measured after 12 hrs post last dose (reference value: 0.184 +/- 0.023 nmol). The class given is ADME, organism-based. The settings on record: in vivo.
Data set [19] deals with Rattus norvegicus. Description: Increase in microsomal protein level in sucrose-fed Sprague-Dawley rat model at 0.2 mmol/kg, po bid administered for 7 days measured after 12 hrs post last dose (reference value: 32.7 +/- 2.2 mg/gm). The settings on record: in vivo. The format is ADME, organism-based.
Data set [20] concerns Rattus norvegicus. The data set is described as follows: Increase in ethylmorphine N-demethylase activity in sucrose-fed Sprague-Dawley rat model at 0.2 mmol/kg, po bid administered for 7 days measured after 12 hrs post last dose relative to control. The format is ADME, organism-based. The settings on record: in vivo.
Data set [21] concerns Rattus norvegicus. Description: Antilipidemic activity in sucrose-fed Sprague-Dawley rat model assessed as reduction of liver cholesterol level at 0.2 mmol/kg, po bid administered for 7 days measured after 12 hrs post last dose (reference value: 1.86 +/- 0.17 mg/gm). The class given is functional.
The test system of data set [22] is Rattus norvegicus. The data set is described as follows: Increase in NADPH cytochrome c reductase activity in sucrose-fed Sprague-Dawley rat model at 0.2 mmol/kg, po bid administered for 7 days measured after 12 hrs post last dose (reference value: 148.7 +/- 17.7 nmol/mg/min). The format is ADME, organism-based. Conditions: in vivo.
Data set [23] has as its system Rattus norvegicus. Description: Antilipidemic activity in sucrose fed Sprague-Dawley rat model assessed as serum cholesterol level at 0.2 mmol/kg, po bid administered for 7 days measured after 12 hrs post last dose (reference value: 61.7 +/- 11.6 mg/dL). The class given is functional.
In data set [24] the test system is Rattus norvegicus. The data set is described as follows: Effect on cytochrome P450 level in sucrose-fed Sprague-Dawley rat model assessed per mg of protein at 0.2 mmol/kg, po bid administered for 7 days measured after 12 hrs post last dose (reference value: 0.361 +/- […] nmol). The format is ADME, organism-based. The settings on record: in vivo.
Data set [25] deals with Rattus norvegicus. The data set is described as follows: Increase in NADPH cytochrome c reductase activity in sucrose-fed Sprague-Dawley rat model at 0.2 mmol/kg, po bid administered for 7 days measured after 12 hrs post last dose relative to control. The format is ADME, organism-based. Conditions: in vivo.
In data set [26] the test system is Rattus norvegicus. Description: Antilipidemic activity in sucrose-fed Sprague-Dawley rat model assessed as reduction in HMG-CoA reductase activity at 0.2 mmol/kg, po bid administered for 7 days measured after 12 hrs post last dose relative to control. The format is functional.
Data set [27] relates to Rattus norvegicus. Description: Effect on cytochrome P450 level in sucrose-fed Sprague-Dawley rat model assessed per mg of protein at 0.2 mmol/kg, po bid administered for 7 days measured after 12 hrs post last dose relative to control. The format is ADME, organism-based. The settings on record: in vivo.
The test system of data set [28] is Rattus norvegicus. The data set is described as follows: Increase in liver to body weight ratio in sucrose-fed Sprague-Dawley rat model at 0.2 mmol/kg, po bid administered for 7 days measured after 12 hrs post last dose (reference value: 4.07 +/- 0.28 %). The format is ADME, organism-based. The settings on record: in vivo.
In data set [29] the test system is Rattus norvegicus. Description: Increase in liver weight in sucrose-fed Sprague-Dawley rat model at 0.2 mmol/kg, po bid administered for 7 days measured after 12 hrs post last dose (reference value: 11.76 +/- 1.32 gm). The format is ADME, organism-based. Conditions: in vivo.
Data set [30] has as its system Rattus norvegicus. Description: Antilipidemic activity in sucrose-fed Sprague-Dawley rat model assessed as reduction of liver triglyceride level at 0.2 mmol/kg, po bid administered for 7 days measured after 12 hrs post last dose relative to control. The class given is functional.
Data set [31] relates to Rattus norvegicus. Description: Antilipidemic activity in sucrose fed Sprague-Dawley rat model assessed as serum triglyceride level at 0.2 mmol/kg, po bid administered for 7 days measured after 12 hrs post last dose (reference value: 91.9 +/- 19.8 mg/dL). The class given is functional.

As to `CCOC(=O)C(C)(C)Oc1ccc(Cl)cc1` [CLOFIBRATE], the Activity in the data set on Rattus norvegicus [1] came to 22.3%; in the data set with Rattus norvegicus [2] it was 26.9 mg/dL; in the data set with Rattus norvegicus [3], 31.7 mg/dL; with Rattus norvegicus [4], 2.1 nmol/mg/h; in the data set on Rattus norvegicus [5], 87%; in the data set on Rattus norvegicus [6], 163%. Besides, the Activity came to 180% in the data set on Rattus norvegicus [8]; 1.84 mg/g with Rattus norvegicus [9]; 262% with Rattus norvegicus [10]; 14.3 g with Rattus norvegicus [11]; 24.1% in the data set on Rattus norvegicus [12]; 0.2 nmol in the data set on Rattus norvegicus [13]. In addition, the Activity with Rattus norvegicus [14] came to 93.2%; with Rattus norvegicus [15], 5.24%; with Rattus norvegicus [16] it was 3.21 mg/g; in the data set with Rattus norvegicus [17], 39.3 mg/g. The result in the data set on Rattus norvegicus [7] was inactive.
Take `CCOC(=O)[C@@]12Oc3ccc(Cl)cc3[C@@H]1[C@@H]1c3cc(Cl)ccc3O[C@@]12C(=O)OCC`: the Activity was determined as 0.179 nmol with Rattus norvegicus [18]; 33% in the data set on Rattus norvegicus [1]; 41.4 mg/g with Rattus norvegicus [19]; 102.7 mg/dL with Rattus norvegicus [2]; 81 mg/dL with Rattus norvegicus [3]; 2.41 nmol/mg/h in the data set on Rattus norvegicus [4]. In addition, the Activity was determined as 63.9% in the data set with Rattus norvegicus [5]; 157% with Rattus norvegicus [20]; 1.98 mg/g with Rattus norvegicus [21]; 168.7 nmol/mg/min with Rattus norvegicus [22]; 69.5 mg/dL in the data set with Rattus norvegicus [23]; 2.1 mg/g with Rattus norvegicus [9]. For the same compound, the Activity in the data set on Rattus norvegicus [24] is 0.386 nmol; with Rattus norvegicus [25], 123%; in the data set on Rattus norvegicus [26], 2.42 nmol/mg/h; in the data set on Rattus norvegicus [11] it was 11.99 g; in the data set on Rattus norvegicus [12] it was 24.3%; with Rattus norvegicus [13], 0.19 nmol. Also, the Activity in the data set with Rattus norvegicus [14] was determined as 176.7%; in the data set with Rattus norvegicus [27], 138%; in the data set with Rattus norvegicus [28] it was 3.69%; in the data set on Rattus norvegicus [15] it was 4.03%; in the data set on Rattus norvegicus [29], 11.24 g; in the data set on Rattus norvegicus [30], 8.09 mg/g. Besides, the Activity in the data set on Rattus norvegicus [16] was 12.34 mg/g; with Rattus norvegicus [17] it was 38.2 mg/g; in the data set on Rattus norvegicus [31], 70.2 mg/dL. Further, the result in the data set on Rattus norvegicus [7] was inactive.
